Legend:
[1] = test system: normal mice and SART stress mice; experiment: Analgesic effect, D'Amour-Smith method; type: in vivo, mice (ddY-strain male); conditions: for responders at 100 mg/kg / responders at 160 mg/kg: Mus musculus; for responders at 160 mg/kg: peroral 160 mg/kg; for Analgesic effect: peroral 50 mg/kg
In short: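 ddY male normal mice and mice under 4-day SART stress (n=10/group); black-inked tail root irradiated with infrared rays (up to 15 s cutoff), escape latency recorded. Effect expressed as proportion of mice whose mean latency at 30, 60, 90 and 120 min post-dose was at least 2× pre-dose latency.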

[2] = test system: normal rats and SART stress rats; experiment: Analgesic effect, pain induced by Bradykinin; type: in vivo, rats (SD-strain male)
Method: 5.4 Method of measuring a pain induced by Bradykinin:
Groups each comprising 4-8 SD-strain male normal rats and SART stress rats to which SART stress had been applied for 4 days were used. The tests were carried out according to the method of Deffenu et al. [Deffenu, G., Pegrassi, L., & Fumachi. B.; J. Pharm. Pharmacol.; 18, 135 (1966)] and Blane method [Blane, G. F.; J. Pharm. Pharmacol.; 19, 367 (1967)]. The effect judged was shown by ratio of the rats in which the effect was recognized according to the method of Abe, et al. [Abe, Kaneko & Takagi; Folia Pharmacol. Japon.; 67, 9-14 (1971)].

dd-strain male mice = experiment: Inhibitory effect on Tremorine-induced tremor; type: in vivo; conditions: 100 mg/kg intraperitoneal; tremorine 10 mg/Kg
Method: 9. Inhibitory effect on Tremorine-induced tremor:
Groups of mice each comprising 10-40 dd-strain male mice were used. Effect of the compounds of the present invention on tremor caused by tremorine was examined. The compounds of the present invention or DPH was given intraperitoneally. 45 minutes thereafter, 10 mg/Kg of tremorine was given intraperitoneally for inducing the tremor.

[3] = ip, SART stress mice, intraperitoneal 100 mg/kg
[4] = ip, normal mice, intraperitoneal 100 mg/kg
[5] = po, SART stress mice, peroral 100 mg/kg
[6] = po, normal mice, peroral 100 mg/kg
[7] = SART stress rats, intraperitoneal 100 mg/kg
[8] = SART stress rats, peroral 100 mg/kg
[9] = normal rats, intraperitoneal 100 mg/kg

O=C1NC(=O)C(c2cc(O)c(O)c(O)c2)(c2cc(O)c(O)c(O)c2)N1 [Compound 36, 5,5-Bis(3,4,5-trihydroxyphenyl)hydantoin]
responders at 100 mg/kg [1, 3]: 60%
responders at 100 mg/kg [1, 4]: 40%
responders at 100 mg/kg [1, 5]: 30%
responders at 160 mg/kg ([1]; po, SART stress mice): 40%
responders at 100 mg/kg [1, 6]: 20%
responders at 160 mg/kg ([1]; po, normal mice): 30%
Analgesic effect [2, 7]: 50%
Analgesic effect [2, 8]: 33.3%
Analgesic effect [2, 9]: 33.3%
Analgesic effect ([2]; normal rats, peroral 100 mg/kg): 10%

O=C1NC(=O)C(c2ccc(O)cc2)(c2ccc(O)cc2)N1 [Compound 4, 5,5-Bis(4-hydroxyphenyl)hydantoin]
responders at 100 mg/kg [1, 3]: 60%
responders at 100 mg/kg [1, 4]: 40%
responders at 100 mg/kg [1, 5]: 50%
responders at 160 mg/kg ([1]; po, SART stress mice): 60%
responders at 100 mg/kg [1, 6]: 20%
responders at 160 mg/kg ([1]; po, normal mice): 40%
Analgesic effect ([1]; SART stress mice): 40%
Analgesic effect ([1]; normal mice): 10%
Inhibitory effect on Tremorine-induced tremor (dd-strain male mice): 54%
Analgesic effect [2, 7]: 100%
Analgesic effect [2, 8]: 40%
Analgesic effect [2, 9]: 100%
Analgesic effect ([2]; normal rats, peroral 100 mg/kg): 0%

COc1ccc(C2(c3ccc(OC)c(Cl)c3)NC(=O)NC2=O)cc1 (stereo not shown) [Compound 2, 5-(3-chloro-4-methoxyphenyl)-5-(4-methoxyphenyl)hydantoin]
responders at 100 mg/kg [1, 3]: 50%
responders at 100 mg/kg [1, 4]: 30%
responders at 100 mg/kg [1, 5]: 30%
responders at 160 mg/kg ([1]; po, SART stress mice): 60%
responders at 100 mg/kg [1, 6]: 10%
responders at 160 mg/kg ([1]; po, normal mice): 30%
Inhibitory effect on Tremorine-induced tremor (dd-strain male mice): 38%
Analgesic effect [2, 7]: 75%
Analgesic effect [2, 8]: 30%
Analgesic effect [2, 9]: 66.7%
Analgesic effect ([2]; normal rats, peroral 100 mg/kg): 10%

Reference: patent US4281009A, “Hydantoin derivatives” (Nippon Zoki Pharmaceutical Co., Ltd., priority 1978, dated 1981)
